Among the data in BindingDB's records for doi:10.1021/jm970814z (University of Sydney, 1998) are Ki values, retold here.

This experiment has as its target CAD protein (Mesocricetus auratus). The experiment can be described thus: Compound ability to inhibit the catalytic activity of hamster Dihydroorotase (DHOase) expressed in Escherichia coli.

“And” between values parts separate entries of the source, which are not always exact repeats. Equal values may be shown once.

As for `O=C1CP(O)(O)=CC(C(=O)O)N1` (configuration not stated) [4-Hydroxy-4,6-dioxo-4lambda*5*-[1,4]azaphosphinane-2-carboxylic acid], the Ki (as a rule, a dissociation constant, usually derived from enzyme kinetics or from competition with a known ligand) was 4 µM.

Consider `O=C1CP(O)(S)=C[C@@H](C(=O)O)N1` (stereo partly drawn) [(2R,4S)-4-Mercapto-4,6-dioxo-4lambda*5*-[1,4]azaphosphinane-2-carboxylic acid], for which the Ki was 2.9 µM and 3.1 µM.
